Laboratory results published in patent US20240327356A1, “PYRIMIDINE BASED RAS MODULATORS AND USES THEREOF” (QUANTA THERAPEUTICS, INC., priority 2021, published 2024).

What follows are compounds tested against KRAS^G12D-FMe.RAF1^RBDCRD complex (Homo sapiens, UniProt P01116, G12D) (assay: SHG assay: binding to bilayer-tethered KRAS G12D/RAF1 complex). Conditions: GppNHp-loaded complex on PS bilayer; compound 0.027-40 μM, monitored over 60 min.
Experimental: Compounds suspected to carry intrinsic SHG activity were tested in the presence of an unlabeled KRAS^G12D-FMe.RAF1^RBDCRD complex to monitor binding. PS bilayer was prepared from PS-enriched small unilamellar vesicles (SUVs) purchased from Biodesy, Inc. The concentrated SUVs were diluted in TBS buffer containing 5 mM CaCl2 and incubated on a glass-bottom 384-well Biodesy Delta™ assay plate to allow bilayer formation. Equimolar amounts of GppNHp-loaded KRAS^G12D-FMe and RAF1^RBDCRD were mixed and incubated together on PS bilayer overnight at 4° C. The following day, untethered protein was removed by washing with assay buffer (20 mM Hepes, pH 7.4, […], 1 mM TCEP, 5 μM GppNHp). The SHG signal produced by bilayer-tethered complex was ready using the Biodesy Delta™ platform where each well was pulsed with an 800 nm laser and the resulting second harmonic signal intensity at 400 nm was collected. Compounds were diluted into the same assay buffer and applied to the complex at a final concentration range spanning 0.027 μM-40 μM and the SHG intensity of each well was monitored at 5 minute intervals over a 60 minute time period.

SMILES	EC50 [µM]
NCC1CCN(c2nc(-c3ccc(Cl)c(Cl)c3)ncc2C2=CCNC2)C1 (stereo not shown) [Compound 10]	1 to 10
CN1CC(Oc2nc(-c3ccc(Cl)c(C(F)(F)F)c3)ncc2CNC(=O)C2(C#N)CC2)C1 [Compound 78]	10 to 50
CN1CCC(Oc2nc(-c3ccc(Cl)c(C(F)(F)F)c3)ncc2CNC(=O)C2(C#N)CC2)C1 (stereo not shown) [Compound 79]	10 to 50
Cc1ccc(-c2ncc(CNC(=O)C3CNC3)c(N3CCC(CN)C3)n2)cc1Cl (stereo not shown) [Compound 85]	1 to 10
Cc1ccc(-c2ncc(CNC(=O)C3CN(C)C3)c(N3CCC(CN)C3)n2)cc1Cl (stereo not shown) [Compound 86]	1 to 10
Cc1ccc(-c2ncc(CNC(=O)C3(C#N)CC3)c(N3CCC(CN(C)C)C3)n2)cc1Cl (stereo not shown) [Compound 129]	1 to 10
Cc1ccc(-c2ncc(CNCC3CC3)c(N3CCC(CN)C3)n2)cc1Cl (stereo not shown) [Compound 132]	1 to 10
N#CC1(C(=O)NCc2cnc(-c3cc(F)c(C(F)(F)F)c(F)c3)nc2N2CCC(CN)C2)CC1 (stereo not shown) [Compound 137]	1 to 10
Cc1c(Cl)cc(-c2ncc(CNC(=O)C3(C#N)CC3)c(N3CCC(CN)C3)n2)cc1Cl (stereo not shown) [Compound 139]	1 to 10
Cc1c(F)cc(-c2ncc(CNC(=O)C3(C#N)CC3)c(N3CCC(CN)C3)n2)cc1[N+](=O)[O-] (stereo not shown) [Compound 140]	1 to 10
CN(C)CC1CCN(c2nc(-c3cc(Cl)cc(-c4ccccc4)c3)ncc2CNC(=O)C2(C#N)CC2)C1 (stereo not shown) [Compound 142]	1 to 10
CN(C)CC1CCN(c2nc(-c3cc(Cl)cc(C#Cc4ccccc4)c3)ncc2CNC(=O)C2(C#N)CC2)C1 (stereo not shown) [Compound 143]	1 to 10
CN(C)CC1CCN(c2nc(-c3cc(Cl)cc(/C=C/c4ccccc4)c3)ncc2CNC(=O)C2(C#N)CC2)C1 (stereo not shown) [Compound 144]	1 to 10
C#Cc1cc(-c2ncc(CNC(=O)C3(C#N)CC3)c(N3CCC(CN(C)C)C3)n2)cc(F)c1C (stereo not shown) [Compound 147, 1-cyano-N-[[4-[3-[(dimethylamino)methyl]pyrrolidin-1-yl]-2-(3-ethynyl-5-fluoro-4-methyl-phenyl)pyrimidin-5-yl]methyl]cyclopropanecarboxamide]	10 to 50
CN(C)CC1CCN(c2nc(-c3cc(Cl)cc(Cc4ccccc4)c3)ncc2CNC(=O)C2(C#N)CC2)C1 (stereo not shown) [Compound 148]	1 to 10
CN(C)CC1CCN(c2nc(-c3cc(Cl)cc(C(F)c4ccccc4)c3)ncc2CNC(=O)C2(C#N)CC2)C1 (stereo not shown) [Compound 149]	1 to 10
CN(C)CC1CCN(c2nc(-c3ccc(Cc4ccccc4)c(Cl)c3)ncc2CNC(=O)C2(C#N)CC2)C1 (stereo not shown) [Compound 150]	1 to 10

Continued, values first:

EC50 [µM]	SMILES
1 to 10	NCc1cnc(-c2ccc(Cl)c(C(F)(F)F)c2)nc1N1CC[C@@H](CN)C1 [Compound 1]
0.1 to 1	NC[C@@H]1CCN(c2nc(-c3ccc(Cl)c(C(F)(F)F)c3)ncc2C2=CCNC2)C1 [Compound 2, [(3S)-1-[2-[4-chloro-3-(trifluoromethyl)phenyl]-5-(2,5-dihydro-1H-pyrrol-3-yl)pyrimidin-4-yl]pyrrolidin-3-yl]methanamine]
1 to 10	NCc1cnc(-c2ccc(Cl)c(C(F)(F)F)c2)nc1N1CCC(CN)C1 (stereo not shown) [Compound 4]
1 to 10	CS(=O)(=O)NCc1cnc(-c2ccc(Cl)c(C(F)(F)F)c2)nc1N1CCC(CN)C1 (stereo not shown) [Compound 6, N-[[4-[3-(aminomethyl)pyrrolidin-1-yl]-2-[4-chloro-3-(trifluoromethyl)phenyl]pyrimidin-5-yl]methyl]methanesulfonamide]
1 to 10	NCC1CCN(c2nc(-c3ccc(Cl)c(C(F)(F)F)c3)ncc2CNC(=O)C2(F)CC2)C1 (stereo not shown) [Compound 7]
1 to 10	NCC1CCN(c2nc(-c3ccc(Cl)c(C(F)(F)F)c3)ncc2CNC(=O)c2ccccc2)C1 (stereo not shown) [Compound 9]
1 to 10	Cc1ccc(-c2ncc(CNc3ccccc3)c(N3CCC(CN)C3)n2)cc1Cl (stereo not shown) [Compound 130]
1 to 10	Cc1ccc(-c2ncc(OCC(=O)Nc3ccccc3)c(N3CCC(CN)C3)n2)cc1Cl (stereo not shown) [Compound 131]
1 to 10	Cc1ccc(-c2ncc(CNC(=O)C(F)c3ccccc3)c(N3CCC(CN)C3)n2)cc1Cl (stereo not shown) [Compound 133]
1 to 10	Cc1ccc(-c2ncc(CNC(=O)C(F)(F)c3ccccc3)c(N3CCC(CN)C3)n2)cc1Cl (stereo not shown) [Compound 134]
1 to 10	Cc1ccc(-c2ncc(CNC(=O)C3Cc4ccccc4O3)c(N3CCC(CN)C3)n2)cc1Cl (stereo not shown) [Compound 135]
1 to 10	N#CC1(C(=O)NCc2cnc(-c3ccc(Cl)c(OC(F)(F)F)c3)nc2N2CCC(CN)C2)CC1 (stereo not shown) [Compound 141]
1 to 10	C#CC1(C(=O)NCc2cnc(-c3ccc(Cl)c(C(F)(F)F)c3)nc2N2CCC(CN)C2)CC1 (stereo not shown) [Compound 145]

The compounds below were run on Phospho-ERK (Thr202/Tyr204) in MiaPaCa-2 cells (assay: pERK inhibition in MiaPaca-2 cell line (HTRF)). Conditions: Homo sapiens, MIA PaCa-2, 1 hour incubation with compound.
Assay type: cell-based
Experimental: MiaPaCa-2 cells (ATCC CRL-1420) were cultured in high glucose DMEM (Gibco 11965092) containing 10% fetal bovine serum (Gibco 1993708) and 1× Penicillin/Streptomycin, at 37° C. in a humid atmosphere of 5% CO2 in the air. Cells were plated in tissue-culture treated 96-well plates at a density of 10,000 cells/well and allowed to attach for 16 hours. The medium was then removed, and diluted compounds were added in a final concentration of 0.5% DMSO. After 1 hour of incubation, cells were lysed by the lysis buffer supplied with the Phospho-ERK (Thr202/Tyr204) cellular HTRF kit (Cisbio 64ERKPEH) and transferred to a 384-well low-volume white plate (PerkinElmer 6008280). The cell lysates were treated with the detection reagents supplied with the HTRF kit for 4 hours at ambient temperature in darkness. Two fluorescence intensities at the wavelengths (665 and 620 nm) were measured by the Envision plate reader (Perkin Elmer), and the data were processed and fitted to a 4-parameter logistic model for IC50 calculation (GraphPad Prism 9).

SMILES	IC50 [µM]
Cc1ccc(-c2ncc(CNC(=O)C3(F)CC3)c(O[C@@H]3CNC[C@@H]3O)n2)cc1Cl (racemic) [Compound 100]	10 to 50
NCC1CCN(c2nc(-c3ccc(C(F)(F)F)cc3F)ncc2C2=CCNC2)C1 (stereo not shown) [Compound 8]	1 to 10
NCC1CCN(c2nc(-c3ccc(Cl)c(Cl)c3)ncc2C2=CCNC2)C1 (stereo not shown) [Compound 10]	1 to 10
NCC1CCN(c2nc(-c3ccc(Cl)cc3F)ncc2C2=CCNC2)C1 (stereo not shown) [Compound 11]	1 to 10
N#Cc1cc(-c2ncc(C3=CCNC3)c(N3CCC(CN)C3)n2)ccc1Cl (stereo not shown) [Compound 22]	1 to 10
N#CC1(C(=O)NCc2cnc(-c3ccc(Cl)cc3F)nc2N2CCC(CN)C2)CC1 (stereo not shown) [Compound 24]	10 to 50
Cc1ccc(-c2ncc(NS(=O)(=O)C3CC3)c(N3CCC(CN)C3)n2)cc1Cl (stereo not shown) [Compound 111]	1 to 10
Cc1ccc(-c2ncc(CNC(=O)C3(C#N)CC3)c(N3CCN(C)CC3)n2)cc1Cl [Compound 115]	1 to 10
N#CC1(C(=O)NCc2cnc(-c3ccc4c(c3)CC4)nc2N2CCC(CN)C2)CC1 (stereo not shown) [Compound 117]	1 to 10
Cc1ccc(-c2ncc(OCC(=O)N(C)C)c(N3CCC(CN)C3)n2)cc1Cl (stereo not shown) [Compound 127]	1 to 10
Cc1ccc(-c2ncc(CNC(=O)C3(F)CC3)c(CN3CCN(C)CC3)n2)cc1Cl [Compound 128, N-[[2-(3-chloro-4-methyl-phenyl)-4-[(4-methylpiperazin-1-yl)methyl]pyrimidin-5-yl]methyl]-1-fluoro-cyclopropanecarboxamide]	10 to 50

The remaining lines, values ahead:

IC50 [µM]	SMILES
10 to 50	NCc1cnc(-c2ccc(Cl)c(C(F)(F)F)c2)nc1N1CC[C@@H](CN)C1 [Compound 1]
1 to 10	NC[C@@H]1CCN(c2nc(-c3ccc(Cl)c(C(F)(F)F)c3)ncc2C2=CCNC2)C1 [Compound 2, [(3S)-1-[2-[4-chloro-3-(trifluoromethyl)phenyl]-5-(2,5-dihydro-1H-pyrrol-3-yl)pyrimidin-4-yl]pyrrolidin-3-yl]methanamine]
1 to 10	NCCOc1cnc(-c2ccc(Cl)c(C(F)(F)F)c2)nc1N1CC[C@@H](CN)C1 [Compound 3, (S)-2-((4-(3-(aminomethyl)pyrrolidin-1-yl)-2-(4-chloro-3-(trifluoromethyl)phenyl)pyrimidin-5-yl)oxy)ethan-1-amine]
1 to 10	NCC1CCN(c2nc(-c3ccc(Cl)c(C(F)(F)F)c3)ncc2CNC(=O)C2(F)CC2)C1 (stereo not shown) [Compound 7]
10 to 50	NCC1CCN(c2nc(-c3ccc(Cl)c(C(F)(F)F)c3)ncc2CNC(=O)c2ccccc2)C1 (stereo not shown) [Compound 9]
1 to 10	NCC1CCN(c2nc(-c3ccc(Cl)c(C(F)(F)F)c3)ncc2OC2CNC2)C1 (stereo not shown) [Compound 13]
1 to 10	NCC1CCN(c2nc(-c3ccc(Cl)c(C(F)(F)F)c3)ncc2OC2CCNC2)C1 (stereo not shown) [Compound 15]
1 to 10	NCC1CCN(c2nc(-c3ccc(Cl)c(C(F)(F)F)c3)ncc2OC2COC2)C1 (stereo not shown) [Compound 16]
10 to 50	CCOC(=O)NCc1cnc(-c2ccc(C(F)(F)F)cc2F)nc1N1CCC(CN)C1 (stereo not shown) [Compound 21, ethyl N-[[4-[3-(aminomethyl)pyrrolidin-1-yl]-2-[2-fluoro-4-(trifluoromethyl)phenyl]pyrimidin-5-yl]methyl]carbamate]
10 to 50	N#CC1(C(=O)NCc2cnc(-c3ccc4ccccc4c3)nc2N2CCC(CN)C2)CC1 (stereo not shown) [Compound 64]
1 to 10	Cc1ccc(-c2ncc(NC(=O)c3ccccc3)c(N3CCC(CN)C3)n2)cc1Cl (stereo not shown) [Compound 114]
